In one series the target is T1, BRAF (Homo sapiens, UniProt P15056).
T1 construct: purchased Eurofins Genomics KK; (BRAF); Thermo Fisher Scientific Inc. (MEK1)
Kind of series: BRAF-inhibiting activity, time-resolved fluorescence-fluorescence resonance energy transfer assay. It counts as biochemical. On the procedure:
The BRAF-inhibiting activity of the compounds listed in Table 3 below was evaluated by the time-resolved fluorescence-fluorescence resonance energy transfer assay as described below.

The next series has as its system NCI-H2122. Kind of series: Cell proliferation-inhibiting activity (ATP in viable cells, CellTiter-Glo), NCI-H2122. Type of series: cell-based, human. The settings on record: read-out: NCI-H2122 IC50.
Series [1] is described as follows: Human liver microsome stability. Type of series: in vitro ADME. The settings on record: human liver microsomes, pH 7.4.
For the next series, the target named is T2, MEK1 (Homo sapiens, UniProt Q02750).
T2 construct: purchased Thermo Fisher Scientific Inc. (MEK1, CRAF); Carna Biosciences, Inc. (ERK2)
Kind of series: MEK1-inhibiting activity, fluorescent polarization method (CRAF/MEK1/ERK2 cascade, IMAP). It counts as biochemical. The settings on record: Table 3; read-out: MEK1 IC50. On the procedure:
The MEK1-inhibiting activity of the compounds listed in Table 3 below were evaluated by the fluorescent polarization method as described below.

Another series has as its system Calu-6. Kind of series: Cell proliferation-inhibiting activity (ATP in viable cells, CellTiter-Glo), Calu-6. It counts as cell-based, human. The settings on record: read-out: Calu-6 IC50. In general terms: ATP-based viability assays read luminescence as a measure of living cells.
In the next series the test system is A549. Kind of series: Cell proliferation-inhibiting activity (ATP in viable cells, CellTiter-Glo), A549. The settings on record: Homo sapiens, A549, 96 h, read-out: A549 IC50. Type of series: cell-based, human.
The mark [2] stands for this setting: NCI-H2122, 96 h, human lung cancer cells, 4 days.
Setting [3] is: Calu-6, 96 h, human lung cancer cells, 4 days.
[4] abbreviates: human lung cancer cells, 4 days.

Usually IC50 stands for the concentration that gives 50% inhibition. For orientation: microsomal CLint means the rate of metabolic loss divided by the concentration. High values mean faster metabolism, low ones greater metabolic stability.

Each structure is given as a SMILES string. Read-outs that look alike come from different tables or passages of the source.

T2 sequence (Q02750 whole entry): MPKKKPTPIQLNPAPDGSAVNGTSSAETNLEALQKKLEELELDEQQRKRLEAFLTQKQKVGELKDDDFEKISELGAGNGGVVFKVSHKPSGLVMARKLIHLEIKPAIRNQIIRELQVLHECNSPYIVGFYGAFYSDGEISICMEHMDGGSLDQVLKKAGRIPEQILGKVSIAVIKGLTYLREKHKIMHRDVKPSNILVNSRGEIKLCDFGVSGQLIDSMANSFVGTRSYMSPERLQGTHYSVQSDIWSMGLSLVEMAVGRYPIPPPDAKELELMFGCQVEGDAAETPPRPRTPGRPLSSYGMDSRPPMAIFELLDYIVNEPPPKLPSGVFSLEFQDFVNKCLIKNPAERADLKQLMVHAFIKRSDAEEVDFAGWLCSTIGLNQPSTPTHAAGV
T1 sequence (P15056 417-766 limits assumed): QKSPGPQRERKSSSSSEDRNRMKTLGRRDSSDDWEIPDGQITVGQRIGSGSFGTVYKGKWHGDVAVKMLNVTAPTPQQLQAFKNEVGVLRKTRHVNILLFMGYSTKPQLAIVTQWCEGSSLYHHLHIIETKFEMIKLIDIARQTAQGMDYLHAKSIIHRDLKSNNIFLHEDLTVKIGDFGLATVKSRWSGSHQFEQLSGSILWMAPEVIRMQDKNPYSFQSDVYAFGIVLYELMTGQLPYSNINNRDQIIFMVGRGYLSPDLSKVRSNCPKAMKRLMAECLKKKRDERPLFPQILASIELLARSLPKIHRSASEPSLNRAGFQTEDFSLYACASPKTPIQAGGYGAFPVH

Regarding `CC1(NS(=O)(=O)Nc2nccc(Cc3cc(C(N)=O)c(Nc4ccc(C5CC5)cc4F)c(F)c3F)c2F)CCC1` [Compound A-46, 2-(4-Cyclopropyl-2-fluoroanilino)-3,4-difluoro-5-[[3-fluoro-2-[(1-methylcyclobutyl)sulfamoylamino]pyridin-4-yl]methyl]benzamide], the half-inhibitory concentration (IC50) was 30 nM at BRAF (Table 3; read-out: BRAF IC50); 31 nM in the series on NCI-H2122 (Homo sapiens, NCI-H2122, 96 h); 811 nM at MEK1; 367 nM with Calu-6 (Homo sapiens, Calu-6, 96 h). Moreover, in series [1], the intrinsic metabolic clearance (microsomal CLint) at 0.99 µM came to 23 µL/min/mg.

In the case of `CS(=O)(=O)Nc1nccc(Cc2cc(C(=O)NC3CC3)c(Nc3ccc(I)cc3F)c(F)c2F)c1F` [Compound B-14, N-Cyclopropyl-3,4-difluoro-2-(2-fluoro-4-iodoanilino)-5-[[3-fluoro-2-(methanesulfonamide)pyridin-4-yl]methyl]benzamide], the IC50 worked out at 13 nM at BRAF (read-out: BRAF IC50; Table 3), 11 nM in the series with NCI-H2122 (setting [2]), 104 nM at MEK1 and 74 nM in the series on Calu-6 (setting [3]). Also, the microsomal CLint at 0.99 µM in series [1] was 4 µL/min/mg.

Take `CONC(=O)c1cc(Cc2ccnc(NS(C)(=O)=O)c2F)c(F)c(F)c1Nc1ccc(I)cc1F` [Compound B-15, 3,4-Difluoro-2-(2-fluoro-4-iodoanilino)-5-[[3-fluoro-2-(methanesulfonamide)pyridin-4-yl]methyl]-N-methoxybenzamide]: the IC50 at BRAF (read-out: BRAF IC50; Table 3) turned out to be 4 nM; with NCI-H2122 (setting [2]) it was 6 nM; on MEK1 it was 8 nM; with Calu-6 (setting [3]), 60 nM. Also, in series [1], the microsomal CLint at 0.99 µM was 13 µL/min/mg.

Turning to `CCS(=O)(=O)Nc1nccc(Cc2cc(C(=O)NOC)c(Nc3ccc(I)cc3F)c(F)c2F)c1F` [Compound B-16, 5-[[2-(ethylsulfonylamino)-3-fluoropyridin-4-yl]methyl]-3,4-difl uoro-2-(2-fluoro-4-iodoanilino)-N-methoxybenzamide], the IC50 at BRAF (read-out: BRAF IC50; Table 3) stood at 12 nM; in the series on NCI-H2122 (setting [2]) it was 1 nM; on MEK1 it was 4 nM; with Calu-6 (setting [3]), 9 nM. This compound came in with a microsomal CLint at 0.99 µM in series [1] of 10 µL/min/mg.

Take `CC1(NS(=O)(=O)Nc2cccc(Cc3cc(C(N)=O)c(Nc4ccc(I)cc4F)c(F)c3F)c2F)CCC1` [Compound D-9, 3,4-Difluoro-2-(2-fluoro-4-iodoanilino)-5-[[2-fluoro-3-[(1-methylcyclobutyl)sulfamoylamino]phenyl]methyl]benzamide]: the IC50 on BRAF (read-out: BRAF IC50; Table 3) is 24 nM; in the series on NCI-H2122 (setting [2]), 3 nM; at MEK1 it was 252 nM; in the series with Calu-6 (setting [3]), 28 nM. The same compound registered a microsomal CLint at 0.99 µM in series [1] of 53 µL/min/mg.

On to `CNS(=O)(=O)Nc1cccc(Cc2cc(C(=O)NOC)c(Nc3ccc(I)cc3F)c(F)c2F)c1F` [Compound D-11, 3,4-Difluoro-2-(2-fluoro-4-iodoanilino)-5-[[2-fluoro-3-(methylsulfamoylamino)phenyl]methyl]-N-methoxybenzamide], for which the IC50 at BRAF (read-out: BRAF IC50; Table 3) is 3 nM; in the series on NCI-H2122 (setting [2]) it was 0.3 nM; on MEK1, 6 nM; with Calu-6 (setting [3]) it was 2 nM. For the same compound, the microsomal CLint at 0.99 µM in series [1] stood at 24 µL/min/mg.

As for `CONC(=O)c1cc(Cc2cccc(NS(N)(=O)=O)c2F)c(F)c(F)c1Nc1ccc(I)cc1F` [Compound D-12, 3,4-Difluoro-2-(2-fluoro-4-iodoanilino)-5-[[2-fluoro-3-(sulfamoylamino)phenyl]methyl]-N-methoxybenzamide], the IC50 at BRAF (read-out: BRAF IC50; Table 3) worked out at 14 nM; in the series on NCI-H2122 (setting [2]), 0.4 nM; at MEK1, 15 nM; in the series on Calu-6 (setting [3]), 6 nM. Besides, the microsomal CLint at 0.99 µM in series [1] turned out to be 18 µL/min/mg.

For the compound `CONC(=O)c1cc(Cc2cccc(NS(=O)(=O)NC3(C)CCC3)c2F)c(F)c(F)c1Nc1ccc(I)cc1F` [Compound D-13, 3,4-Difluoro-2-(2-fluoro-4-iodoanilino)-5-[[2-fluoro-3-[(1-methylcyclobutyl)sulfamoylamino]phenyl]methyl]-N-methoxybenzamide], the IC50 at BRAF (read-out: BRAF IC50; Table 3) is 18 nM; in the series on NCI-H2122 (setting [2]) it was 1 nM; at MEK1, 29 nM; with Calu-6 (setting [3]), 6 nM. Also, the microsomal CLint at 0.99 µM in series [1] was found to be 88 µL/min/mg.

With `CNS(=O)(=O)Nc1cccc(Cc2cc(C(N)=O)c(Nc3ccc(C4CC4)cc3F)c(F)c2F)c1F` [Compound D-14, 2-(4-Cyclopropyl-2-fluoroanilino)-3,4-difluoro-5-[[2-fluoro-3-(methylsulfamoylamino)phenyl]methyl]benzamide], the half-inhibitory concentration (IC50) at BRAF (Table 3; read-out: BRAF IC50) came out at 7 nM; with NCI-H2122 (Homo sapiens, NCI-H2122, 96 h), 10 nM; on MEK1, 1600 nM; in the series on Calu-6 (Homo sapiens, Calu-6, 96 h), 117 nM. This compound also gave a microsomal CLint at 0.99 µM in series [1] of 15 µL/min/mg.

Turning to `CNS(=O)(=O)Nc1cccc(Cc2cc(C(=O)NOC)c(Nc3ccc(C4CC4)cc3F)c(F)c2F)c1F` [Compound D-16, 2-(4-Cyclopropyl-2-fluoroanilino)-3,4-difluoro-5-[[2-fluoro-3-(methylsulfamoylamino)phenyl]methyl]-N-methoxybenzamide], the IC50 was determined as 6 nM at BRAF (Table 3; read-out: BRAF IC50); 1 nM in the series on NCI-H2122 (Homo sapiens, NCI-H2122, 96 h); 48 nM on MEK1; 17 nM in the series with Calu-6 (Homo sapiens, Calu-6, 96 h). In addition, the microsomal CLint at 0.99 µM in series [1] was determined as 51 µL/min/mg.

In the case of `CS(=O)(=O)Nc1cccc(Cc2cc(C(=O)NC3CC3)c(Nc3ccc(I)cc3F)c(F)c2F)c1F` [Compound E-25, N-Cyclopropyl-3,4-difluoro-2-(2-fluoro-4-iodoanilino)-5-[[2-fluoro-3-(methanesulfonamide)phenyl]methyl]benzamide], the concentration for half-maximal inhibition (IC50) was 11 nM on BRAF (Table 3; read-out: BRAF IC50), 7 nM in the series with NCI-H2122 (setting [4]), 284 nM at MEK1 and 28 nM with Calu-6 (setting [4]).

For the compound `CONC(=O)c1cc(Cc2cccc(NS(C)(=O)=O)c2F)c(F)c(F)c1Nc1ccc(I)cc1F` [Compound E-26, 3,4-Difluoro-2-(2-fluoro-4-iodoanilino)-5-[[2-fluoro-3-(methanesulfonamide)phenyl]methyl]-N-methoxybenzamide], the IC50 on BRAF (read-out: BRAF IC50; Table 3) was determined as 6 nM; in the series with NCI-H2122 (setting [2]) it was 0.6 nM; at MEK1 it was 13 nM; with Calu-6 (setting [3]) it was 5 nM. In series [1], the microsomal CLint at 0.99 µM stood at 13 µL/min/mg.

On to `CC1(NS(=O)(=O)Nc2nccc(Cc3cc(C(=O)NC4CC4)c(Nc4ccc(C5CC5)cc4F)c(F)c3F)c2F)CCC1` [Compound G-5], for which the IC50 was 78 nM at BRAF (Table 3; read-out: BRAF IC50); 57 nM in the series with NCI-H2122 (Homo sapiens, NCI-H2122, 96 h); 751 nM at MEK1; 374 nM in the series with Calu-6 (Homo sapiens, Calu-6, 96 h). The compound further had a microsomal CLint at 0.99 µM in series [1] of 86 µL/min/mg.

As to `CONC(=O)c1cc(Cc2ccnc(NS(=O)(=O)NC3(C)CCC3)c2F)c(F)c(F)c1Nc1ccc(C2CC2)cc1F` [Compound G-6, 2-(4-Cyclopropyl-2-fluoroanilino)-3,4-difluoro-5-[[3-fluoro-2-[(1-methylcyclobutyl)sulfamoylamino]pyridin-4-yl]methyl]-N-methoxybenzamide], the concentration for half-maximal inhibition (IC50) at BRAF (read-out: BRAF IC50; Table 3) is 15 nM; in the series on NCI-H2122 (setting [2]), 2 nM; on MEK1, 32 nM; in the series with Calu-6 (setting [3]) it was 23 nM. In series [1], this compound had a microsomal CLint at 0.99 µM of 57 µL/min/mg.

Turning to `CCS(=O)(=O)Nc1nccc(Cc2cc(C(=O)NOC)c(Nc3ccc(C4CC4)cc3F)c(F)c2F)c1F` [Compound G-8, 2-(4-Cyclopropyl-2-fluoroanilino)-5-[[2-(ethylsulfonylamino)-3-fluoropyridin-4-yl]methyl]-3,4-difluoro-N-methoxybenzamide], the IC50 on BRAF (Table 3; read-out: BRAF IC50) was found to be 7 nM; with NCI-H2122 (Homo sapiens, NCI-H2122, 96 h) it was 25 nM; at MEK1 it was 53 nM; in the series on Calu-6 (Homo sapiens, Calu-6, 96 h), 232 nM. Further, the microsomal CLint at 0.99 µM in series [1] is 26 µL/min/mg.

As for `CONC(=O)c1cc(Cc2ccnc(NS(C)(=O)=O)c2F)c(F)c(F)c1Nc1ccc(C2CC2)cc1F` [Compound G-9, 2-(4-Cyclopropyl-2-fluoroanilino)-3,4-difluoro-5-[[3-fluoro-2-(methanesulfonamide)pyridin-4-yl]methyl]-N-methoxybenzamide], the IC50 was 13 nM at BRAF (Table 3; read-out: BRAF IC50); 67 nM with NCI-H2122 (Homo sapiens, NCI-H2122, 96 h); 230 nM on MEK1; 444 nM in the series with Calu-6 (Homo sapiens, Calu-6, 96 h). The compound further gave an intrinsic clearance (microsomal CLint) at 0.99 µM in series [1] of 22 µL/min/mg.

For `CNS(=O)(=O)Nc1nccc(Cn2cc(C(N)=O)c(Nc3ccc(SC)cc3F)c(F)c2=O)c1F` [Compound N-3, 5-Fluoro-1-[[3-fluoro-2-(methylsulfamoylamino)pyridin-4-yl]methyl]-4-(2-fluoro-4-methylsulfanylanilino)-6-oxopyridine-3-carboxamide], the IC50 at BRAF (Table 3; read-out: BRAF IC50) was found to be 5 nM; in the series with A549, 475 nM; in the series on NCI-H2122 (Homo sapiens, NCI-H2122, 96 h) it was 311 nM; at MEK1, 4 nM. In series [1], the microsomal CLint at 0.99 µM was determined as 19 µL/min/mg.

On to `CNS(=O)(=O)Nc1nccc(Cn2cc(C(N)=O)c(Nc3ccc(I)cc3F)c(C)c2=O)c1F` [Compound P-1, 4-(2-Fluoro-4-iodoanilino)-1-[[3-fluoro-2-(methylsulfamoylamino)pyridin-4-yl]methyl]-5-methyl-6-oxopyridine-3-carboxamide], for which the IC50 in the series on NCI-H2122 (setting [2]) was found to be 6 nM; on MEK1, 2 nM; with Calu-6 (setting [3]) it was 22 nM. The compound also returned a microsomal CLint at 0.99 µM in series [1] of 15 µL/min/mg.

For the origin of these results see patent EP4725941A1, “ARYLAMIDE DERIVATIVE HAVING ANTITUMOR ACTIVITY” (priority 2020, dated 2021).
